Measurements: patent publication US6951733B2, “Method for testing drug susceptibility of Mycobacterium tuberculosis” (priority 2000, dated 2005)
Values joined by “and” are separate entries in the source; they are usually repeats but may differ in a detail not shown here. Equal entries are not always repeated. Where two headings read alike, the source gives them in different places.

Columns and labels:
[1] = tested on: 13 M. tuberculosis pan-susceptible strains; experiment: MIC determination on HSTB agar, susceptible strains; assay type: cell-based
[2] = tested on: ten strains previously identified as INH-resistant; experiment: microbe, parasite or virus in culture; assay type: cell-based, M. tuberculosis; details: Mycobacterium tuberculosis, HSTB agar; greater than 3.2 eight strains, 1.6 one strain
strain H37Rv = assay type: cell-based, M. tuberculosis
strain 9719 [3] = assay type: cell-based, M. tuberculosis; details: for Proportions (%%) of resistant bacteria as determined by agar plates containing the drug (μg/ml) 300 / Proportions (%%) of resistant bacteria as determined by agar plates containing the drug (μg/ml) 900 / Proportions (%%) of resistant bacteria as determined by agar plates containing the drug (μg/ml) 1200: strain 9719
strain 9719 [4] = experiment: microbe, parasite or virus in culture; assay type: cell-based, M. tuberculosis; details: read-out: MIC (μg/ml) BACTEC
[5] = tested on: 55 M. tuberculosis clinical isolates; assay type: cell-based
[6] = 0% of resistant bacteria incorporated
[7] = 10% of resistant bacteria incorporated
[8] = 25% of resistant bacteria incorporated
[9] = 50% of resistant bacteria incorporated
[10] = 100% of resistant bacteria (resistant mutant)
[11] = strains Susceptible by the BACTEC 300 μg/ml
[12] = strains Susceptible by the BACTEC 900 μg/ml

`NNC(=O)c1ccncc1` [INH, isoniazid] was tested, and the “critical concentration for detection of the high level of resistance” value [1] was 1.0 µg/mL, the “critical concentration for detection of the low level of resistance” value [1] was 0.2 µg/mL and the MIC [2] was over 3.2 µg/mL.
With `NC(=O)c1cnccn1` [PZA, pyrazinamide] the “MIC (μg/ml) Agar” value (strain H37Rv) was 900 µg/mL and >1200 µg/mL, the “growth in the agar medium with the drug” value (strain 9719 [3]; pansusceptible strain 9719, all drug-concentrations (300, 900, 1200 μg/ml)) was “completely inhibited” and the “Proportions (%%) of resistant bacteria as determined by agar plates containing the drug (μg/ml) 300” value (from here on “Proportions (%%) … (μg/ml) 300”) (strain 9719 [3]; [6]) was 0%. The “Proportions (%%) of resistant bacteria as determined by agar plates containing the drug (μg/ml) 900” value (“Proportions (%%) … (μg/ml) 900” for short) (strain 9719 [3]; [6]) was 0%, the “Proportions (%%) of resistant bacteria as determined by agar plates containing the drug (μg/ml) 1200” value (“Proportions (%%) … (μg/ml) 1200” for short) (strain 9719 [3]; [6]) was 0% and the “Proportions (%%) … (μg/ml) 300” value (strain 9719 [3]; [7]) was 13.8%. The “Proportions (%%) … (μg/ml) 900” value (strain 9719 [3]; [7]) was 8.6%, the “Proportions (%%) … (μg/ml) 1200” value (strain 9719 [3]; [7]) was 8.6% and the “Proportions (%%) … (μg/ml) 300” value (strain 9719 [3]; [8]) was 18.1%. For the same compound, the “Proportions (%%) … (μg/ml) 900” value (strain 9719 [3]; [8]) was 16.2%, the “Proportions (%%) … (μg/ml) 1200” value (strain 9719 [3]; [8]) was 16.5% and the “Proportions (%%) … (μg/ml) 300” value (strain 9719 [3]; [9]) was 35.9%. The “Proportions (%%) … (μg/ml) 900” value (strain 9719 [3]; [9]) was 36.9%, the “Proportions (%%) … (μg/ml) 1200” value (strain 9719 [3]; [9]) was 40.0% and the “Proportions (%%) … (μg/ml) 300” value (strain 9719 [3]; [10]) was 97.8%. For the same compound, the “Proportions (%%) … (μg/ml) 900” value (strain 9719 [3]; [10]) was 96.1%, the “Proportions (%%) … (μg/ml) 1200” value (strain 9719 [3]; [10]) was 86.2% and the MIC (strain 9719 [4]; Mycobacterium tuberculosis, 9719, pH 6, strain 9719, 0% of resistant bacteria incorporated) was at most 100 µg/mL. The MIC (strain 9719 [4]; Mycobacterium tuberculosis, 9719, pH 6, strain 9719, 10% of resistant bacteria incorporated) was over 900 µg/mL, the MIC (strain 9719 [4]; Mycobacterium tuberculosis, 9719, pH 6, strain 9719, 25% of resistant bacteria incorporated) was over 900 µg/mL and the MIC (strain 9719 [4]; Mycobacterium tuberculosis, 9719, pH 6, strain 9719, 50% of resistant bacteria incorporated) was over 900 µg/mL. The “Number of strains by the agar proportion method, 900 μg/ml Resistant” value (from here on “Number of strains … 900 μg/ml Resistant”) [5] was 27, the “Number of strains by the agar proportion method, 1200 μg/ml Resistant” value (from here on “Number of strains … 1200 μg/ml Resistant”) [5] was 27 and 26 and the “Number of strains … 900 μg/ml Resistant” value [5, 11] was 0. The “Number of strains … 1200 μg/ml Resistant” value [5, 11] was 0, the “Number of strains … 900 μg/ml Resistant” value [5, 12] was 2 and the “Number of strains … 1200 μg/ml Resistant” value [5, 12] was 1.
